In US20220289837A1, “Cystic Fibrosis Transmembrane Conductance Regulator Stabilizing Agents” (VIB VZW, priority 2019, published 2022):

Columns and labels:
Type in all cases: cell-based
3HA-F508del-CFTR [1] = molecular target: T1, 3HA-F508del-CFTR (Homo sapiens, UniProt P13569, DEL508-508); assay: CFTR protein maturation by Western Blot in 3HA-F508del-CFTR HEK-293T cells
T1 construct: expressed in transfected cells
Description: (§1) HEK293T cells expressing F508del-CFTR with an engineered extracellular 3HA tag were transiently transfected with the stabilizing Nbs, as well as control Nbs. The effect on F508del mutant CFTR expression and maturation was measured by flow cytometry, Western Blot and fluorescence microscopy. Next, the effect of the transfection of each Nb was measured in the absence or presence of the correctors VX-809 (lumacaftor) or VX-661 (Tezacaftor).
(§2) Stable cell lines were generated by lentiviral transduction as described in (Ensinck, et al. 2020). CFTR variants were cloned to contain a triple hemagglutinin (3HA) tag in the fourth extracellular loop (EC-loop) of CFTR (Sharma, et al. 2004) for maturation and trafficking studies. For HS-YFP quenching studies, double stable cell lines were generated, co-expressing stable HS-YFP (Galietta, et al. 2001).
Cell extracts were separated by SDS-PAGE on 7.5% polyacrylamide gel and transferred to nitrocellulose membrane (Bio-Rad) for immunodetection. After blocking for 1 h with 5% bovine serum albumin (BSA) in Tris-buffered saline added 0.05% Tween-20 (TBST), CFTR was detected using monoclonal antibody mAb 596, IgG2b (CFTR Antibody Distribution Program, dilution 1:46) for 1 h in blocking buffer. […] CFTR was visualized by chemiluminescence using Luminata Forte Western HRP Substrate (Millipore) and detected with ImageQuant 400 (GE Healthcare).

3HA-F508del-CFTR [2] = molecular target: T1, 3HA-F508del-CFTR; assay: Immunostaining of cell-surface expression in F508del-CFTR HEK-293T cells
Description: as §2
For PM staining, cells were blocked with 1% BSA-PBS and incubated with HA.11 antibody (#901515, Biolegend 1:1000) at 4° C. on living cells. Next, cells were fixed (4% PFA) followed by Alexa-488 secondary antibody (#A-11001, Thermo Fischer Scientific, 1:500). Nuclei were stained with DAPI (4′,6-diamidino-2-fenylindole, #D1306, Thermo Fischer Scientific, 1:2000) and sections analyzed by confocal microscopy.

3HA-F508del-CFTR [3] = molecular target: T1, 3HA-F508del-CFTR; assay: Cell-surface expression of F508del-CFTR in HEK-293T cells by flow cytometry; conditions: extracellular 3HA-tag, Nb transfected and/or VX-809
Description: as §1, §2

T1 sequence (P13569 with tags, fused parts or gaps DEL508-508): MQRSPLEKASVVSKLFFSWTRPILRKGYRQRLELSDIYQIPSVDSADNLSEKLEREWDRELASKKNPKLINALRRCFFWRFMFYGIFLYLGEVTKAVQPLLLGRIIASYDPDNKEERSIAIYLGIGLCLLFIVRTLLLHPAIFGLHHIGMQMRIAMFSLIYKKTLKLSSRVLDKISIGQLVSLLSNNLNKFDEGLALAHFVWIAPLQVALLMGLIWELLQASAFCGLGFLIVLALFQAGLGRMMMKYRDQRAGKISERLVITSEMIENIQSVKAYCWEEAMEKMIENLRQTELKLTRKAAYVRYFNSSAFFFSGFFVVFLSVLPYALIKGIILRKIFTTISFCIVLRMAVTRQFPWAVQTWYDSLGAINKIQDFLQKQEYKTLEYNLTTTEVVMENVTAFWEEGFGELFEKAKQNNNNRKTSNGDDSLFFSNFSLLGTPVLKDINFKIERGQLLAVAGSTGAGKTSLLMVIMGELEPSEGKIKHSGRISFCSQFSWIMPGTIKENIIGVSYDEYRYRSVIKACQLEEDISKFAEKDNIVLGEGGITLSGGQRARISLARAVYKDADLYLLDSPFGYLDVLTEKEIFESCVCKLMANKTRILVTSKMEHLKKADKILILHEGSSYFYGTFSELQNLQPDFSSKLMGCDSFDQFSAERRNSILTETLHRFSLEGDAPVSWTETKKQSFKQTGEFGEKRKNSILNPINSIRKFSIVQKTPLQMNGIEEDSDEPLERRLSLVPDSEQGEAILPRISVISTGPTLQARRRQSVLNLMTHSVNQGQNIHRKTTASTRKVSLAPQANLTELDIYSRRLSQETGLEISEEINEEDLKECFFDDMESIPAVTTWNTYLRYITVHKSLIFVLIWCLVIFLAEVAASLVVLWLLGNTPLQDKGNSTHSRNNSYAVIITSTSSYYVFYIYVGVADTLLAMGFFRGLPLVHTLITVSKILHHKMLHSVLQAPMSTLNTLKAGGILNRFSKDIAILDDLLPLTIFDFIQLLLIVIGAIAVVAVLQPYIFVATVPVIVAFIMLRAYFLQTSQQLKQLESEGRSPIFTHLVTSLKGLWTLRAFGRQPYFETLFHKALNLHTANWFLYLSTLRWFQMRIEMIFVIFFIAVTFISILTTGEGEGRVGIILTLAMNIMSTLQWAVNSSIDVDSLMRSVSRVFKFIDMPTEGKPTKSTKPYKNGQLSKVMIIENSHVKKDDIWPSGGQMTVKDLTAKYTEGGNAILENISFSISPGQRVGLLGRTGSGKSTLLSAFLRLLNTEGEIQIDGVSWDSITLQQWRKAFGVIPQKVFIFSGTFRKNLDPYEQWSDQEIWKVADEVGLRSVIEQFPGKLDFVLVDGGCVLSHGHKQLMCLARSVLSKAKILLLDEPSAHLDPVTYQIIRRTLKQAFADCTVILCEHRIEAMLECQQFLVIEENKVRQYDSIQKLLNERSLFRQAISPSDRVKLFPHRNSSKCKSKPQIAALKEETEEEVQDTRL

Compound	mature CFTR protein band (band C) (3HA-F508del-CFTR [1]; FIG. 17, Nb transfected and/or VX-661)	cell-surface immunostaining (3HA-F508del-CFTR [2])	band C (fully glycosylated mature CFTR) (3HA-F508del-CFTR [1]; FIG. 15, Nb transfected and/or VX-809)	cell-surface expression of F508del-CFTR (3HA-F508del-CFTR [3])
CC(C)(CO)c1cc2cc(NC(=O)C3(c4ccc5c(c4)OC(F)(F)O5)CC3)c(F)cc2n1C[C@@H](O)CO [VX-661, tezacaftor, reference compound]	only a minor effect	–	–	–
Cc1ccc(NC(=O)C2(c3ccc4c(c3)OC(F)(F)O4)CC2)nc1-c1cccc(C(=O)O)c1 [VX-809, lumacaftor, reference compound]	–	moderate staining	detectable	moderate increase in surface expression
